The values below come from US12540143B2, “Methods and compositions for targeted protein degradation” (Ranok Therapeutics (Hangzhou) Co. Ltd., priority 2019, dated 2026).

One data set has as its target PBRM1 BD2 (Homo sapiens, UniProt Q86U86). Briefly: Bromodomain Binding Assay. The following applies: 10 μM Compound 074, read-out: Bromodomain Binding % of Control.
The next data set concerns the target BPTF (Homo sapiens, UniProt Q12830). Briefly: Bromodomain Binding Assay. The following applies: 10 μM Compound 074, read-out: Bromodomain Binding % of Control.
For a further data set, the target named is BRD3 BD2 (Homo sapiens, UniProt Q15059). Briefly: Bromodomain Binding Assay. The following applies: 10 μM Compound 074, read-out: Bromodomain Binding % of Control.
A further data set addresses T1, TAF1L BD2 (Homo sapiens, UniProt Q8IZX4).
T1 construct: made in house; host or cells: T7 phage grown in E. coli host derived from BL21
Nature of the data set: Bromodomain Binding Assay. The following applies: 10 μM Compound 074, read-out: Bromodomain Binding % of Control.

A further data set concerns the target KAT2A (Homo sapiens, UniProt Q92830). Nature of the data set: Bromodomain Binding Assay. The following applies: 10 μM Compound 074, read-out: Bromodomain Binding % of Control.
A further data set concerns the target BRD7 (Homo sapiens, UniProt Q9NPI1). Briefly: Bromodomain Binding Assay. The following applies: 10 μM Compound 074, read-out: Bromodomain Binding % of Control.
The target of the next data set is T2, TRIM24 (Homo sapiens, UniProt O15164).
T2 construct: made in house; host or cells: T7 phage grown in E. coli host derived from BL21
Nature of the data set: Bromodomain Binding Assay. The following applies: 10 μM Compound 074, read-out: Bromodomain Binding % of Control.

Data set [1] deals with SU-DHL-4 diffuse large B-cell lymphoma xenograft. Nature of the data set: SU-DHL-4 DLBCL xenograft model in mice. The method, then:
10 μL the cell proliferation reagent CCK-8 (WST-8) was added into each well and incubated at 37° C./5% CO2 for 3-4 hr and the absorbance at 450 nm measured with an En Vision Plate Reader.
5×10^6 MV-4-11 or 1×10^7 SU-DHL-4 cells were collected and re-suspended in 0.1 mL of serum-free media with Matrigel (1:1 v/v) per mouse for subcutaneous inoculation in isoflurane anesthetized male BALB/c nude or C.B-17 scid mice, respectively (treated in accordance with AAALAC animal welfare guidelines). When the average tumor volumes reached 100-200 mm^3, tumor volume outliers were removed and the remaining animals randomly divided into groups of 6-8 with similar average tumor volumes in each group. […] Animals were intravenously dosed at 25 mg/kg, 50 mg/kg or 100 mg/kg 1×/week for 3 or 4 weeks. The appearance and behavior of each mouse was observed and recorded daily. Body weights and tumor volumes were measured and recorded every 2-4 days and the results were expressed as group means±SEM. Pairwise statistical comparisons between groups were performed by one-way ANOVA, and p<0.05 was considered statistically significant.

In another data set the target is T3, KAT2B (Homo sapiens, UniProt Q92831).
T3 construct: made in house; host or cells: T7 phage grown in E. coli host derived from BL21
Briefly: Bromodomain Binding Assay. The following applies: 10 μM Compound 074, read-out: Bromodomain Binding % of Control.

In a further data set the target is BRPF1 (Homo sapiens, UniProt P55201). Nature of the data set: Bromodomain Binding Assay. The following applies: 10 μM Compound 074, read-out: Bromodomain Binding % of Control.
In a further data set the target is BRDT BD1 (Homo sapiens, UniProt Q58F21). Briefly: Bromodomain Binding Assay. The following applies: 10 μM Compound 074, read-out: Bromodomain Binding % of Control.
The target in a further data set is BRD2 BD1 (Homo sapiens, UniProt P25440). Nature of the data set: Bromodomain Binding Assay. The following applies: 10 μM Compound 074, read-out: Bromodomain Binding % of Control.
In the next data set the target is T4, SMARCA4 (Homo sapiens, UniProt P51532).
T4 construct: made in house; host or cells: T7 phage grown in E. coli host derived from BL21
Nature of the data set: Bromodomain Binding Assay. The following applies: 10 μM Compound 074, read-out: Bromodomain Binding % of Control.

The next data set has as its target T5, BRD4 (Homo sapiens, UniProt O60885).
T5 construct: endogenous in cells; host or cells: MV4-11
Nature of the data set: BRD4 western blotting in MV4-11 cells. It is filed as cell-based. The method, then:
Cells were then collected by centrifugation, washed one time with cold PBS, supernatants aspirated and cell pellets lysed with 4° C. RIPA lysis buffer containing a protease/phosphatase inhibitor cocktail. The total protein concentrations of cell lysates were determined by BCA Protein Assay kit. Samples were normalized for equivalent protein concentrations, 5× loading buffer added and heated to 100° C. for 10 min and cooled to room temperature. 20 μl of each sample/well was loaded on a SDS-PAGE gel and electrophoresed for 20 min at 80 V, then 120 V for 1.5 hr. Gels were then electroblotted to nitrocellulose membranes using a wet-transfer method at 250 mA for 2.5 hr. Membranes were incubated with blocking buffer for 1 hr and washed 3 times with TBST for 5 min. Then membranes were incubated with anti-BRD4 (Cell Signaling Technology, #13440) and anti-beta-Actin (Cell Signaling Technology, #3700) antibodies diluted in blocking buffer per the manufacturer's recommendation at 4° C. overnight. After washing 3 times, blots were incubated with the appropriate labeled secondary antibody for 1 hr at room temperature and washed again. Images were read on a LI-COR and the optical density values of bands determined by ImageJ software. Data was analyzed using GraphPad Prism 7.0.
Background: Immunoblotting shows a protein as a band on a membrane.

In another data set the test system is HSP90 client proteins. Nature of the data set: HSP90 Client Protein Degradation Flow Cytometry Assay (summary over all clients). The following applies: ERBB2, IGF1R, EGFR and RAF1. It is filed as cell-based, human. The protocol:
MV4-11 cells were plated in a 24-well tissue culture plate at a density of 350,000 cells/450 μL/well and incubated in 37° C./5% CO2 for 1 hr. Cells were then treated with compounds at various concentrations and incubated in 37° C./5% CO2 for 24 hr. Cells were harvested, washed once, counted and 200 μL of 1% paraformaldehyde/PBS was added and incubated for 15 min at room temperature. 200 μL of 1×PBS/0.4% Triton X-100 was added and incubated for 15 min at 4° C. Cells were washed three times and resuspended in 50 μL of 1×PBS/0.2% Triton X-100. 2 μL/10^6 cells of anti-BRD4 antibody (ABCAM, #128874) was added and mixed by pipetting up and down. Cells were incubated for 30 min at room temperature in the dark, washed three times and resuspended in 50 μL of 1×PBS/0.2% Triton X-100. Goat anti-rabbit IgG H&L antibody (1:2000 dilution) was added and mixed by pipetting up and down and incubated for 30 min at room temperature in the dark. Finally, cells were washed three times and resuspended in 200 μL of PBS for flow cytometric analysis.
Similar flow cytometry experiments for ERBB2 in BT-474 human breast carcinoma cells (ATCC, #HTB-20) and IGF1R, EGFR and RAF1 in HEK-293 human embryonic kidney (ATCC, #CRL-1573) were performed using anti-ERBB2 (R&D, #FAB1129P), anti-IGF1R (Cell Signaling Technology, #9750), anti-EGFR (Cell Signaling Technology, #139690) and anti-RAF1 (ABCAM, #ab181115) antibodies.
Background: Flow cytometry measures light scatter and fluorescence of single cells or particles in a stream.

The target in another data set is CECR2 (Homo sapiens, UniProt Q9BXF3). Nature of the data set: Bromodomain Binding Assay. The following applies: 10 μM Compound 074, read-out: Bromodomain Binding % of Control.
The next data set has as its target T6, TAF1 BD2 (Homo sapiens, UniProt P21675).
T6 construct: made in house; host or cells: T7 phage grown in E. coli host derived from BL21
Nature of the data set: Bromodomain Binding Assay. The following applies: 10 μM Compound 074, read-out: Bromodomain Binding % of Control.

For the next data set, the target named is EP300 (Homo sapiens, UniProt Q09472). Nature of the data set: Bromodomain Binding Assay. The following applies: 10 μM Compound 074, read-out: Bromodomain Binding % of Control.
A further data set addresses BAZ2B (Homo sapiens, UniProt Q9UIF8). Briefly: Bromodomain Binding Assay. The following applies: 10 μM Compound 074, read-out: Bromodomain Binding % of Control.
The mark [2] stands for this setting: 100 mg/kg intravenous 1×/week, after 4 weeks of dosing.

pIC50: −log10 of the molar value.

PBRM1 BD2, sequence (Q86U86 177-287 limits assumed): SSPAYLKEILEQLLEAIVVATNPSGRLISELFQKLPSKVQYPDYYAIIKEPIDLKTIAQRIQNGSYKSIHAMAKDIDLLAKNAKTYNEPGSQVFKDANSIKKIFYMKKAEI
KAT2A, sequence (Q92830 728-832 limits assumed): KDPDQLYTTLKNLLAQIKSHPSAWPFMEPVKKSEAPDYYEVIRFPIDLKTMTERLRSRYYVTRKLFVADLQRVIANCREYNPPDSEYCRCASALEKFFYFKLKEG
T1 sequence (Q8IZX4 1517-1626 limits assumed): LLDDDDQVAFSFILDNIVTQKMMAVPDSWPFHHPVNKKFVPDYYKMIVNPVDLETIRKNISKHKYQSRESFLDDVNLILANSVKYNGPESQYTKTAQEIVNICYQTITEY
T6 sequence (P21675 1519-1628 limits assumed): as the sequence (Q8IZX4 1517-1626 limits assumed) above, with M46V, V51M, I102V, I107L counted along it
T4 sequence (P51532 1453-1564 limits assumed): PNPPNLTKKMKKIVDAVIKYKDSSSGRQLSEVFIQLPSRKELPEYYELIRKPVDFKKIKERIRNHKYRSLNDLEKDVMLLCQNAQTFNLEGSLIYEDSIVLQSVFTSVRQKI
EP300, sequence (Q09472 1049-1156 limits assumed): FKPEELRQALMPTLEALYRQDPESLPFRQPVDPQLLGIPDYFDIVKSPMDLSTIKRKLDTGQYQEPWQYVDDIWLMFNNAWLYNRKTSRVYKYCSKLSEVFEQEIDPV
BRD3 BD2, sequence (Q15059 306-415 limits assumed): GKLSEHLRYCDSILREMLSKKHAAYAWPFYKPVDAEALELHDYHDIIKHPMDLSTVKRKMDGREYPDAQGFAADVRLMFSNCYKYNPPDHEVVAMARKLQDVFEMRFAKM
CECR2, sequence (Q9BXF3 434-538 limits assumed): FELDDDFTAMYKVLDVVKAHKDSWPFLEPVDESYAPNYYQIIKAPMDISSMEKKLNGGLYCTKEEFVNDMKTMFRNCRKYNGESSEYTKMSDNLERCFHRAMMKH
BAZ2B, sequence (Q9UIF8 2060-2164 limits assumed): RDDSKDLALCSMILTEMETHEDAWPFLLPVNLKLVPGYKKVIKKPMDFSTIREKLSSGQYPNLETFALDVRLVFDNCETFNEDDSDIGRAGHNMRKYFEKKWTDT
T2 sequence (O15164 899-1004 limits assumed): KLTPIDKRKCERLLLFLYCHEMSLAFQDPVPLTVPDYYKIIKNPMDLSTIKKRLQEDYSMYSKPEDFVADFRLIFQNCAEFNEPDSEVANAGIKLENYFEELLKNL
BRD7, sequence (Q9NPI1 131-235 limits assumed): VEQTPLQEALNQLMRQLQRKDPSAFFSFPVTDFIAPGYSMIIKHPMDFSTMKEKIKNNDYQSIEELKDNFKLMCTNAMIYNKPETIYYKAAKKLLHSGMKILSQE
T3 sequence (Q92831 723-827 limits assumed): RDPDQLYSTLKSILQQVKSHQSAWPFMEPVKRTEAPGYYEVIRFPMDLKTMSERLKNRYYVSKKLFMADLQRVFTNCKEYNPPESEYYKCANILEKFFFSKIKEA
BRPF1, sequence (P55201 628-732 limits assumed): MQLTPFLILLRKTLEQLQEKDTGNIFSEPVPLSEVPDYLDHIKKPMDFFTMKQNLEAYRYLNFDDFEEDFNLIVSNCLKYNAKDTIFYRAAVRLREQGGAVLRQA
BRD2 BD1, sequence (P25440 74-180 limits assumed): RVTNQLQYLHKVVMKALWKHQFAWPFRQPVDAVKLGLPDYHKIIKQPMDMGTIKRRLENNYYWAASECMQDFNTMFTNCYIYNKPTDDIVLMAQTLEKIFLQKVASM

In general, pIC50 refers to −log10 of the IC50, conventionally taken in molar units. Lower therefore signals a large IC50. For the compound `Cc1sc2c(c1C)C(c1ccc(Cl)cc1)=N[C@@H](CC(=O)N1CCC(CN3CCN(Cc4ccc(-n5c(O)nnc5-c5cc(C(C)C)c(O)cc5O)cc4)CC3)CC1)c1nnc(C)n1-2.Cl` [Compound 74, (S)-2-(4-(4-chlorophenyl)-2,3,9-trimethyl-6H-thieno[3,2-f][1,2,4]triazolo[4,3-a][1,4]diazepin-6-yl)-1-(4-((4-(4-(3-(2,4-dihydroxy-5-isopropylphenyl)-5-hydroxy-4H-1,2,4-triazol-4-yl)benzyl)piperazin-1-yl)methyl)piperidin-1-yl)ethan-1-one hydrochloride], the remaining activity at 10 µM on PBRM1 BD2 was over 75%; on BPTF, over 75%; on BRD3 BD2, under 10%; on TAF1L BD2, over 75%; at KAT2A it was over 75%; on BRD7 it was over 75%. Besides, the remaining activity at 10 µM was over 75% at TRIM24; over 75% on KAT2B; over 75% at BRPF1; under 10% at BRDT BD1; under 10% on BRD2 BD1; over 75% on SMARCA4. Besides, the remaining activity at 10 µM on CECR2 is over 75%; at TAF1 BD2 it was over 75%; at EP300, 11 to 75%; at BAZ2B, over 75%. The “tumor growth inhibition (FIG. 4a)” value in data set [1] (setting [2]) is “significant tumor growth inhibition”. Moreover, the “tumor vs control (T/C) value” in data set [1] (setting [2]) is recorded as 41%. Further, in data set [1] (any dose level, SU-DHL-4 xenograft), the “animal deaths and body weights (FIG. 4b)” value is recorded as “No animal deaths or significant effects on body weights were observed”. Moreover, the “BRD4 degradation by western blotting with proteasome inhibitor bortezomib (FIG. 2)” value at BRD4 (MV4-11 cells treated with both compound 074 and bortezomib) is listed as “BRD4 degradation was blocked”. The “BRD4 degradation by western blotting (FIG. 1)” value at BRD4 (MV4-11 cells, 24 hr, 100 and 300 nM) was “BRD4 degradation was observed”. The compound further gave a pIC50 in the data set on HSP90 client proteins of 5.98 to 6.47.
